pKd, pKi: −log10 of the molar value. Where “and” joins values, the source holds several entries; their conditions need not be identical. Identical values can stand only once. Like-named read-outs stand apart in the source and are kept apart here.
Legend:
[1] = target: T1, rNav1.2 sodium channels (HEK-293 cells) (Rattus norvegicus, UniProt P04775); test: 5 Hz train protocol, QPatch automated patch-clamp; type: cell-based; settings: for Rev (reversibility): Rev = A5/A1 after washout; for potency estimated from few doses: −90 mV, read-out: IC50; for potency: in words;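 for UD (use-dependence of the inhibition): UD = (A3/A4)/(A1/A2) as ratios of peak amplitudes from Figure 1A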
Description: The dynamics of the onset and offset of inhibition was monitored using 5 Hz trains of five depolarizing pulses from a holding potential of −90 mV to −10 mV. The trains were repeated every 20 s. Drugs were applied after 10 control trains and 10 trains were delivered in the presence of the drug. The drug was then washed out, and the 10 trains were repeated.
We measured inhibition (Inh; from which we calculated IC50 values as described in Materials and Methods), reversibility of inhibition (Rev) and use-dependence (UD), as well as time constant of onset (τon) and offset (τoff). The calculation of IC50, quantification of Rev and UD, and the determination of time constants are illustrated in Figure 1A. Because τon should be concentration-dependent if we assume a single binding reaction, we excluded it from the analyses. […] Comments on the interpretation of these properties (Rev, […] and UD) are in Results S1.
(§1) A)–D) Peak amplitudes of evoked currents (5 Hz trains of 5 depolarizations from −90 to −10 mV) are plotted against time. Black dots: Control. Grey dots: Drug perfusion. […] Calculation of properties of inhibition is illustrated. […] E) Calculation of Kr and Ki values from steady-state availability curves.
(§2) HEK-293 cells stably expressing rNav1.2 sodium channels were obtained from NeuroSearch (Ballerup, Denmark).
(§3) Cells were automatically prepared for application to the chips (centrifuged and washed twice, then resuspended in extracellular solution) as described previously. Composition of the extracellular solution was: (in mM): 140 NaCl, 3 KCl, 1 CaCl2, 1 MgCl2, 0.1 CdCl2, 20 TEA-Cl, 5 HEPES, adjusted to pH 7.3, Osmolality: ∼320 mOsm.
(§4) All electrophysiological experiments were conducted on Qpatch-16 or QPatch HT instruments using QPlate™ chips. For a detailed description of the instrument and the patch-clamp chips see [37], [38]. Data were sampled at a frequency of 25 kHz and filtered at 5 kHz. […] The amplifier was controlled and the data were collected by the Sophion QPatch client software. For initial data analysis the QPatch software was used. Built-in amplifiers provide an improved method for series resistance compensation. Leak subtraction (based on a standard P/n protocol) was used to subtract the capacitive component of currents.
From this protocol we extracted five parameters, as illustrated in Figure 1A. We calculated inhibition of a single “cc” concentration: Inh = (amplitudectr – amplitudedrug)/amplitudectr.

[2] = target: T1, rNav1.2 sodium channels (HEK-293 cells); test: steady-state inactivation protocol (availability curves), QPatch automated patch-clamp; type: cell-based
Description: as §1
Standard steady-state inactivation protocols were used to measure the shift of steady-state availability curve caused by the drugs. Currents were evoked by a 10 ms test pulse to −10 mV, preceded by 400 ms pre-pulses from −150 to −30 mV. […] Because the inhibition at hyperpolarized potentials (Inh−150), and the shift of the availability curves (ΔV1/2) are both concentration-dependent properties, we calculated affinities to hyperpolarized and depolarized states (“resting state affinity”: Kr, and “inactivated state affinity”: Ki), which, on the other hand, are concentration-independent characteristics of individual drugs. Calculation of Kr and Ki values are described in Materials and Methods, and illustrated in Figure 1E. State-dependence (SD) was quantified as the ratio Kr/Ki.
as §2, §3, §4
Inactivated affinity (Ki) values were calculated assuming a simple four-state model of drug binding and channel gating, using two separate methods: (1) from the shift of the availability curve (ΔV1/2), the slope of the Boltzmann fit of the availability curve (k) and Kr, using the formula described by Bean, Cohen and Tsien (Ki−ΔV1/2; see Figure 1E), or (2) from the apparent affinity (Kapp) at a certain pre-pulse potential, which was calculated from the inhibition (e.g. Inh−60) as described above, and the availability (h) at the same pre-pulse potential, using the formula from Kuo and Bean (Figure 1E). […] (Arithmetic means and SEM values are given in Results S7.)

[3] = target: sodium channels; settings: averaged literature data, cited from earlier work; for pKi: read-out: Ki−Lit; for pKd: read-out: Kr−Lit
[4] = human plasma, cited from earlier work
[5] = 300 μM, 3 s assigned where too short to be resolved
[6] = HEK293, 300 μM, −90 mV holding potential, 5 Hz train, read-out: Inh (inhibited fraction)
[7] = HEK293, calculated from Inh at single concentration 300 μM, 5 Hz train
[8] = HEK293, 300 µM, read-out: Inh (inhibited fraction) at holding potential −150 mV
[9] = arithmetic mean, 300 µM, read-out: Ki-Kapp arith
[10] = arithmetic mean, 300 µM, read-out: Ki-ΔV1/2 arith
[11] = arithmetic mean, 300 µM, read-out: Kr arith
[12] = geometric mean, from Inh at −150 mV, 300 µM, read-out: Kr (resting state affinity)
[13] = geometric mean, from apparent affinity, 300 µM, read-out: Ki−Kapp (inactivated state affinity)
[14] = geometric mean, from shift of availability curve, 300 µM, read-out: Ki−ΔV1/2 (inactivated state affinity)
[15] = 30 μM, 500 s assigned where irreversible
[16] = HEK293, 30 μM, −90 mV holding potential, 5 Hz train, read-out: Inh (inhibited fraction)
[17] = HEK293, calculated from Inh at single concentration 30 μM, 5 Hz train
[18] = HEK293, 30 µM, read-out: Inh (inhibited fraction) at holding potential −150 mV

T1 sequence (P04775 whole entry): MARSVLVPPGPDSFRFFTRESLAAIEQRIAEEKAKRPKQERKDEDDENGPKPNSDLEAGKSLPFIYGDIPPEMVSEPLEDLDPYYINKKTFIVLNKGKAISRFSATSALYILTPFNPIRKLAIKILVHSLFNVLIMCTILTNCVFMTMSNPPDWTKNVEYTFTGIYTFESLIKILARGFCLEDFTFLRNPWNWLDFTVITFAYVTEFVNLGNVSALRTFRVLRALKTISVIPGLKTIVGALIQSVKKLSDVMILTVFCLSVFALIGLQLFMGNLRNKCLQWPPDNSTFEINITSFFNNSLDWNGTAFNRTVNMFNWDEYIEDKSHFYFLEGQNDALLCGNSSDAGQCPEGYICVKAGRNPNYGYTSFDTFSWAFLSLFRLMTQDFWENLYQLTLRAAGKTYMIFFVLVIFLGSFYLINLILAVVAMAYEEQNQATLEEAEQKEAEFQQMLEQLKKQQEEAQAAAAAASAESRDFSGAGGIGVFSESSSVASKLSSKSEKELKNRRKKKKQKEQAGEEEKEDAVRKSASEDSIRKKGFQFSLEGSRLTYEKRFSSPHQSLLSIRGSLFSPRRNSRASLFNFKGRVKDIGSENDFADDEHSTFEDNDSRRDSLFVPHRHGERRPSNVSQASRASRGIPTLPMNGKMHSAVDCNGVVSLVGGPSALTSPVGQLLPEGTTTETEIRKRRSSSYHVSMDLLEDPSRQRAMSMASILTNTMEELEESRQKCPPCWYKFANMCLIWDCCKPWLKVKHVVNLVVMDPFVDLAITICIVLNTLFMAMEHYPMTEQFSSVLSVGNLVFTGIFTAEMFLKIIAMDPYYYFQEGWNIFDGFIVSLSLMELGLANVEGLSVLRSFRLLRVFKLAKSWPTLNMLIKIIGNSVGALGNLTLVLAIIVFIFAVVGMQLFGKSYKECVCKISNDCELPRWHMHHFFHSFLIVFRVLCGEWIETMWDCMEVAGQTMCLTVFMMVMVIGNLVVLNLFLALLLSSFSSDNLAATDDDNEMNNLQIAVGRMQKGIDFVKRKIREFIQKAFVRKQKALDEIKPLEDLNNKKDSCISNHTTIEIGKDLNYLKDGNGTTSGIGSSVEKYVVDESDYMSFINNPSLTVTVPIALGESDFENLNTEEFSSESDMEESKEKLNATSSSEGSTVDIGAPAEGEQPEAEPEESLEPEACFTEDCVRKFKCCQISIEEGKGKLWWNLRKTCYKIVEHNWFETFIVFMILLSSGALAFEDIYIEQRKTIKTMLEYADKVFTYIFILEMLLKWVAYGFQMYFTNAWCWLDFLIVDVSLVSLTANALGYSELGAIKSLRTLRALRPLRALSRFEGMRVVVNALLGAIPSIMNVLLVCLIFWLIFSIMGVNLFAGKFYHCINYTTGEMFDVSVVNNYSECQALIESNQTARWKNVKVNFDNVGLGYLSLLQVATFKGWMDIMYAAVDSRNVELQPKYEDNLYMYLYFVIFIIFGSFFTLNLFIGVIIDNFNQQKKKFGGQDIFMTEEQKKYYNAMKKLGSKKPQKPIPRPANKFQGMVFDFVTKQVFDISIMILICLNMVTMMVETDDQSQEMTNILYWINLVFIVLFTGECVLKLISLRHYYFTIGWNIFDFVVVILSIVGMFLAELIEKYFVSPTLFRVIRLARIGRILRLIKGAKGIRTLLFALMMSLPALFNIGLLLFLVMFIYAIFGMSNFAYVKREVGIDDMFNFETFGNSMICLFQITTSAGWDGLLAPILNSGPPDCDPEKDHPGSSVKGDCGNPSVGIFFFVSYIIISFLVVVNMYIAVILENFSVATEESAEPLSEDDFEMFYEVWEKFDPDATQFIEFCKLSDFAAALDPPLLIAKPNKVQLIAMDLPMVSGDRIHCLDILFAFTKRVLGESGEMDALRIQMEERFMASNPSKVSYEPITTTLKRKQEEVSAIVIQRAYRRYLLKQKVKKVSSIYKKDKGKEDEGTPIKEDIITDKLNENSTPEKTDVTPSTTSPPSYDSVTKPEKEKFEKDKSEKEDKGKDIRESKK

Structure (SMILES)	τoff ([1]; 300 μM) [s]	τon [1, 5] [s]	UD (use-dependence of the inhibition) ([1]; 300 μM, 5 Hz train)	Rev (reversibility) ([1]; 300 μM)	inhibition at 300 µM [1, 6] [%]	potency estimated from few doses [1, 7] [µM]	potency [1]	ΔV1/2 (shift of availability curve) ([2]; 300 μM) [mV]	inhibition at 300 µM [2, 8] [%]	pKi [2, 9]	pKd [2, 11]	pKd [2, 12]	pKi [2, 13]	τon ([1]; 30 μM) [s]	UD (use-dependence of the inhibition) ([1]; 30 μM, 5 Hz train)	τoff [1, 15] [s]	pKi [3]	pKd [3]	plasma conc. ([4]; as printed in each cell)	plasma conc. ([4]; as printed in the µg/ml cell) [µM]	also measured
NC(=O)N1c2ccccc2C=Cc2ccccc21 [CBZ, Carbamazepine]	10.01	3	0.98	0.87	29	718	among the least potent SCIs	−11.4	21	4.57	2.93	2.93	4.58	–	–	–	4.66	3.02	9.3 [44] µg/ml	39.362	pKi [2, 10]: 4.40; pKi [2, 14]: 4.40
CN(C)CCCN1c2ccccc2Sc2ccc(Cl)cc21 [CPM, Chlorpromazine]	–	–	–	–	–	–	–	–	–	–	–	–	–	14.81	1.30	9.67	6.72	5.50	0.1 [44] µg/ml	0.281	Rev (reversibility) ([1]; 30 μM): 0.07; inhibition at 30 µM [1, 16]: 41%; potency estimated from few doses [1, 17]: 47.3 µM; ΔV1/2 (shift of availability curve) ([2]; 30 μM): −18.4 mV; inhibition at 30 µM [2, 18]: 32%; pKi ([2]; arithmetic mean, 30 µM, read-out: Ki-Kapp arith): 5.99; pKi ([2]; arithmetic mean, 30 µM, read-out: Ki-ΔV1/2 arith): 6.48; pKd ([2]; arithmetic mean, 30 µM, read-out: Kr arith): 4.07; pKd ([2]; geometric mean, from Inh at −150 mV, 30 µM, read-out: Kr (resting state affinity)): 4.16; pKi ([2]; geometric mean, from apparent affinity, 30 µM, read-out: Ki−Kapp (inactivated state affinity)): 6.09; pKi ([2]; geometric mean, from shift of availability curve, 30 µM, read-out: Ki−ΔV1/2 (inactivated state affinity)): 6.54
CNCCCN1c2ccccc2CCc2ccccc21 [DMI, Desipramine]	–	–	–	–	–	–	–	–	–	–	–	–	–	32.02	1.32	51.82	5.94	4.53	0.1 [44] µg/ml	0.330	Rev (reversibility) ([1]; 30 μM): 0.43; inhibition at 30 µM [1, 16]: 62%; potency estimated from few doses [1, 17]: 18.3 µM; inhibition at 30 µM [2, 18]: 35%
CC12CC3CC(C)(C1)CC(N)(C3)C2 [MEM, Memantine]	–	–	–	–	–	–	–	–	–	–	–	–	–	–	–	–	5.18	3.75	0.02 [53] µg/ml	0.075	τon ([1]; 100 μM): 3.51 s; UD (use-dependence of the inhibition) ([1]; 100 μM, 5 Hz train): 0.99; τoff ([1]; 100 μM, 500 s assigned where irreversible): 8.98 s; Rev (reversibility) ([1]; 100 μM): 0.93; inhibition at 100 µM ([1]; HEK293, 100 μM, −90 mV holding potential, 5 Hz train, read-out: Inh (inhibited fraction)): 32%; potency estimated from few doses ([1]; HEK293, calculated from Inh at single concentration 100 μM, 5 Hz train): 230 µM; ΔV1/2 (shift of availability curve) ([2]; 100 μM): −1.77 mV; inhibition at 100 µM ([2]; HEK293, 100 µM, read-out: Inh (inhibited fraction) at holding potential −150 mV): 29%; pKi ([2]; arithmetic mean, 100 µM, read-out: Ki-Kapp arith): 4.49; pKi ([2]; arithmetic mean, 100 µM, read-out: Ki-ΔV1/2 arith): 3.92; pKd ([2]; arithmetic mean, 100 µM, read-out: Kr arith): 3.61; pKd ([2]; geometric mean, from Inh at −150 mV, 100 µM, read-out: Kr (resting state affinity)): 3.62; pKi ([2]; geometric mean, from apparent affinity, 100 µM, read-out: Ki−Kapp (inactivated state affinity)): 4.54 and 4.55; pKi ([2]; geometric mean, from shift of availability curve, 100 µM, read-out: Ki−ΔV1/2 (inactivated state affinity)): 3.96
Cc1cccc(C)c1OCC(C)N (centres unmarked) [MEX, Mexiletine]	12.93	8.6	1.39	0.78	57	231	–	−10.3	32	4.72	3.18	3.20	4.75	–	–	–	4.91	3.40	2 [44] µg/ml	9.271	pKi ([2]; Ki-ΔV1/2 arith, arithmetic mean, 300 µM): 4.43; pKi ([2]; Ki−ΔV1/2 (inactivated state affinity), geometric mean, from shift of availability curve, 300 µM): 4.57

The next lines start with results.

τoff ([1]; 300 μM) [s]	τon [1, 5] [s]	UD (use-dependence of the inhibition) ([1]; 300 μM, 5 Hz train)	Rev (reversibility) ([1]; 300 μM)	inhibition at 300 µM [1, 6] [%]	potency estimated from few doses [1, 7] [µM]	potency [1]	ΔV1/2 (shift of availability curve) ([2]; 300 μM) [mV]	inhibition at 300 µM [2, 8] [%]	pKi [2, 9]	pKd [2, 11]	pKd [2, 12]	pKi [2, 13]	τon ([1]; 30 μM) [s]	UD (use-dependence of the inhibition) ([1]; 30 μM, 5 Hz train)	τoff [1, 15] [s]	Structure (SMILES)	pKi [3]	pKd [3]	plasma conc. ([4]; as printed in each cell)	plasma conc. ([4]; as printed in the µg/ml cell) [µM]	also measured
15.96	5.20	1.01	0.75	18	1390	among the least potent SCIs	−4.93	12	4.11	2.53	2.60	4.15	–	–	–	O=C1NC(=O)C(c2ccccc2)(c2ccccc2)N1 [DPH, 5,5-diphenyl-hydantoin]	4.79	3.15	10 [44] µg/ml	39.64	pKi [2, 10]: 3.76; pKi [2, 14]: 3.83
–	–	–	–	–	–	high potency	–	–	–	–	–	–	96.5	1.02	500	Cc1ccc(-c2nc(C)c(CN3CCN(C(c4ccccc4)c4ccccc4)CC3)[nH]2)cc1 [LIF, Lifarizine]	6.72	4.99	0.02 [59] µg/ml	0.046	onset and offset kinetics (time constants) [1]: very slow kinetics; Rev (reversibility) ([1]; 30 μM): 0.01; use-dependence (UD) ([1]; 5 Hz train): no use-dependence; reversibility ([1]; 200 s of washout): apparent irreversibility; inhibition at 30 µM [1, 16]: 78%; potency estimated from few doses [1, 17]: 5.29 µM; ΔV1/2 (shift of availability curve) ([2]; 1 µM): −4.39 mV; inhibition at 1 µM ([2]; HEK293, 1 µM, read-out: Inh (inhibited fraction) at holding potential −150 mV): 2%; pKi ([2]; arithmetic mean, 1 µM, read-out: Ki-Kapp arith): 6.28; pKi ([2]; arithmetic mean, 1 µM, read-out: Ki-ΔV1/2 arith): 6.02; pKd ([2]; arithmetic mean, 1 µM, read-out: Kr arith): 4.20; pKd ([2]; geometric mean, from Inh at −150 mV, 1 µM, read-out: Kr (resting state affinity)): 4.25; pKi ([2]; geometric mean, from apparent affinity, 1 µM, read-out: Ki−Kapp (inactivated state affinity)): 6.30; pKi ([2]; geometric mean, from shift of availability curve, 1 µM, read-out: Ki−ΔV1/2 (inactivated state affinity)): 6.04

Source: article PMC3004914, “Classification of Drugs Based on Properties of Sodium Channel Inhibition: A Comparative Automated Patch-Clamp Study” (PLoS ONE, 2010)
